Results: patent publication US12606541B2, “PPARg modulators and methods of use” (Eisai R&D Management Co., Ltd., priority 2020, dated 2026)

molecular target: T1, His6-TEV-PPARγ-(234-505) (Homo sapiens, UniProt P37231); test: TR-FRET Assay to Measure Co-R Peptide Recruitment to PPARγ; format: biochemical; details: Co-R peptide recruitment to PPARγ; read-out: TR-FRET AC50
T1 construct: The His6-TEV-PPARγ-(234-505) protein for assay was expressed and purified; TEV cleavage site (N); made in house
T1 sequence (P37231 234-505): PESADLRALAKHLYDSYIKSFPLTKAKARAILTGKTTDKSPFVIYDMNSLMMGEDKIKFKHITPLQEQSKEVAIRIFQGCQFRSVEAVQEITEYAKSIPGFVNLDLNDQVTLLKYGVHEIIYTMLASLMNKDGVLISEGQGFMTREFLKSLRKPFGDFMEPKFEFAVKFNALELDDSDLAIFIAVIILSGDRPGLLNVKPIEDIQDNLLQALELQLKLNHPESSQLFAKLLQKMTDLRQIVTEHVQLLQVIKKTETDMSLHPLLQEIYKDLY
In short: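 Corepressor recruitment is measured by adding terbium-labeled anti-His antibody and FITC SMRT-ID2 peptide, at 5 and 200 nM final, after a 20-minute room-temperature protein–compound incubation. After one further hour, signal is converted to percent response between DMSO and 500 nM T0070907 wells.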

| Compound | AC50 [nM] |
| --- | --- |
| COc1cc(-c2cc(C(=O)N3C[C@@H]4[C@H](C3)[C@H]4C(=O)NCc3cccc(Cl)c3)n[nH]2)c(F)cn1 | > 1000 |
| CN1CCCN(C(=O)C2CCN(C(=O)c3cc(-c4ccncc4)[nH]n3)CC2)CC1 | > 1000 |
| COc1cc(-c2cc(C(=O)N3CCC(C(=O)NCc4cc(Cl)ccn4)CC3)n[nH]2)c(Cl)cn1 [1-[5-(5-chloro-2-methoxypyridin-4-yl)-1H-pyrazole-3-carbonyl]-N-[(4-chloropyridin-2-yl)methyl]piperidine-4-carboxamide] | > 1000 |
| COc1cc(-c2cc(C(=O)N3CC4CC3CC4C(=O)NC3CCC(O)(C(F)(F)F)CC3)n[nH]2)c(F)cn1 (stereo not shown) | > 1000 |
| COc1cc(-c2cc(C(=O)N3CC[C@H](CNC(=O)[C@H]4C[C@@H](C)N[C@@H](C)C4)CC34CC4)n[nH]2)c(F)cn1 | > 1000 |
| COc1cc(-c2cc(C(=O)N3CCC(C(=O)NC(C)(C)c4cccc(Cl)c4)CC3)n[nH]2)c(Cl)cn1 [1-[5-(5-chloro-2-methoxypyridin-4-yl)-1H-pyrazole-3-carbonyl]-N-[2-(3-chlorophenyl)propan-2-yl]piperidine-4-carboxamide] | > 1000 |
| COc1cc(-c2cc(C(=O)N3CCC(C(=O)NC4CCCc5[nH]c(=O)ccc54)CC3)n[nH]2)c(Cl)cn1 (stereo not shown) [1-[5-(5-chloro-2-methoxypyridin-4-yl)-1H-pyrazole-3-carbonyl]-N-(2-oxo-1,2,5,6,7,8-hexahydroquinolin-5-yl)piperidine-4-carboxamide] | > 1000 |

Second part, the compound after the results:

| AC50 [nM] | Compound |
| --- | --- |
| > 1000 | COc1cc(-c2cc(C(=O)N3CCC(C(=O)NCC4(N(C)C)CCCC4)CC3)n[nH]2)c(Cl)cn1 [1-[5-(5-chloro-2-methoxypyridin-4-yl)-1H-pyrazole-3-carbonyl]-N-{[1-(dimethylamino)cyclopentyl]methyl}piperidine-4-carboxamide] |
| > 1000 | O=C(Nc1cccnn1)C1CCN(C(=O)c2cc(-c3ccncc3)[nH]n2)CC1 [N-(pyridazin-3-yl)-1-[5-(pyridin-4-yl)-1H-pyrazole-3-carbonyl]piperidine-4-carboxamide] |
| > 1000 | CN1CCC(N(C)C(=O)C2CCN(C(=O)c3cc(-c4ccncc4)[nH]n3)CC2)CC1 [N-methyl-N-(1-methylpiperidin-4-yl)-1-[5-(pyridin-4-yl)-1H-pyrazole-3-carbonyl]piperidine-4-carboxamide] |
| > 1000 | COc1cc(-c2cc(C(=O)N3CCC(C(=O)NCc4cnc(C)cn4)CC3)n[nH]2)c(Cl)cn1 [1-[5-(5-chloro-2-methoxypyridin-4-yl)-1H-pyrazole-3-carbonyl]-N-[(5-methylpyrazin-2-yl)methyl]piperidine-4-carboxamide] |
| > 1000 | O=C(Nc1ncco1)C1CCN(C(=O)c2cc(-c3ccncc3)[nH]n2)CC1 [N-(1,3-oxazol-2-yl)-1-[5-(pyridin-4-yl)-1H-pyrazole-3-carbonyl]piperidine-4-carboxamide] |
| > 1000 | COc1c(Cl)cccc1CNC(=O)C1CCN(C(=O)c2cc(-c3ccncc3)[nH]n2)CC1 [N-[(3-chloro-2-methoxyphenyl)methyl]-1-[5-(pyridin-4-yl)-1H-pyrazole-3-carbonyl]piperidine-4-carboxamide] |
| > 1000 | O=C(NCCCN1CCOCC1)C1CCN(C(=O)c2cc(-c3ccncc3)[nH]n2)CC1 [N-[3-(morpholin-4-yl)propyl]-1-[5-(pyridin-4-yl)-1H-pyrazole-3-carbonyl]piperidine-4-carboxamide] |
| > 1000 | CC1CCC(NC(=O)C2CCN(C(=O)c3cc(-c4ccnc(N(C)C)c4)[nH]n3)CC2)CC1 (stereo not shown) [1-{5-[2-(dimethylamino)pyridin-4-yl]-1H-pyrazole-3-carbonyl}-N-(4-methylcyclohexyl)piperidine-4-carboxamide] |
| > 1000 | O=C(c1cc(-c2ccncc2)[nH]n1)N1CCC(C(=O)N2CCC[C@H]2CO)CC1 [[(2S)-1-{1-[5-(pyridin-4-yl)-1H-pyrazole-3-carbonyl]piperidine-4-carbonyl}pyrrolidin-2-yl]methanol] |
